Laboratory results reported in patent US5334761A, “Cationic lipids” (Life Technologies, Inc., priority 1992, dated 1994).
Counter-ions that a name gives are not always drawn.

Columns and labels:
BHK-21 cells [1] = experiment: CAT transient transfection; format: cell-based, baby hamster
Procedure: (§1) A one-to-one mixture (by weight) of the desired lipid and dioleylphosphatidyl ethanolamine was prepared in CHCl3. The CHCl3 was removed on the rotary evaporator to obtain a thin film of lipid mixture. The mixture was hydrated with enough water to obtain approximately 1.25 mg of lipid per ml of solution. The solution was passed through a microfluidizer twice and diluted to 1 mg/ml. The liposome formulation was then filtered through a 0.2 μ filter. Compound 8 was also formulated without DOPE either by sonication at 1 mg/ml in water or by dissolving a dried lipid film with ethanol and then adding water to give a final concentration of 2.5 mg/ml. Ethanol was 10% of that volume. In some instances, this was further diluted with water to 1 mg/ml, 4% ethanol.
(§2) Baby hamster kidney (BHK-21) , COS-7, HeLa-S3 cells, and normal human fibroblasts isolated from newborn foreskin dermis were grown in Dulbecco's-modified Eagle's medium (DMEM) containing 10% fetal bovine serum (FBS), 2 mM L-glutamine (gln), 0.1 mM MEM nonessential amino acids (NEAA), 100 U/ml penicillin, and 100 μg/ml streptomycin. […]
Cell lysates were assayed for CAT activity as described by Neumann et al. (1987) BioTechniques 5:444 using [^14 C]-butyryl coenzyme A (New England Nuclear, Boston, Mass.). […] CAT activity was determined by measuring radioactivity in a liquid scintillation counter. […]

BHK-21 cells [2] = experiment: % protein (toxicity estimate, Bradford) after transfection; format: cell-based, baby hamster
Procedure: as §1, §2
(§3) The "% protein" column indicates the relative amount of protein in the sample tested for CAT activity and therefore provides a way to estimate toxicity of the compounds being tested. […] Protein was measured using a commercially available Bradford protein assay (BioRad Laboratories, Richmond, Ca.). […]

NIH-3T3 cells = experiment: CAT transient transfection; format: cell-based, mouse
Procedure: as §1
(§4) Baby hamster kidney (BHK-21) , COS-7, HeLa-S3 cells, and normal human fibroblasts isolated from newborn foreskin dermis were grown in Dulbecco's-modified Eagle's medium (DMEM) containing 10% fetal bovine serum (FBS), 2 mM L-glutamine (gln), 0.1 mM MEM nonessential amino acids (NEAA), 100 U/ml penicillin, and 100 μg/ml streptomycin. NIH-3T3 cells were grown in DMEM containing 10% calf serum (CS), 2 mMgln, 0.1 mM NEAA 100 U/ml penicillin, and 100 μg/ml streptomycin. PC12 cells were grown in DMEMcontaining 10% horse serum, 5% FBS, 2 mM gln, 0 1 mMNEAA, 100 U/ml penicillin and 100 μ/ml streptomycin. Jurkat cells (human lymphoid cell line) were grown in RPMI-1640 supplemented with 10% FBS, 2mML-glutamine, 100 U/ml penicillin, and 100 μg/ml streptomycin. Human keratinocytes were isolated from newborn foreskin epidermis and cultured in Keratinocyte Growth Medium (Clonetics, San Diego, Ca.). All cell lines were maintained in a humidified incubator with a 5% CO2 atmosphere at 37° C.
(§5) pSV2CAT (5.0 Kb) was described previously (Gorman, C. M. et al. (1982) Mol. Cell. Biol. 2:1044). pCMVCAT (5.0 Kb) was also described previously (Foecking M. K. and Hofstetter, H. (1986) Gene 45:101). Plasmid DNA was purified by isopycnic centrifugation in CsCl/EtBr gradients after recovery by alkaline lysis (Maniatis, T. et al. (1982) in Molecular Cloning: A Laboratory Manual, Cold Spring Harbor Laboratory, Cold Spring Harbor, N.Y., pp. 90-91).
(§6) For transient transfection of pSV2CAT DNA or pCMVCAT DNA, cells were plated in 6-well tissue culture dishes (35 mm wells) and incubated overnight to approximately 60% confluency. To transfect cells in one well, 1-2 μg of pSV2CAT DNA or pCMVCAT DNA was diluted in 100 μl Opti-MEM I. Cationic lipids were diluted separately in another 100 μl aliquot of Opti-MEM I. The two solutions were then mixed in a polystyrene tube, incubated for 10-15 min at room temperature to allow the formation of a DNA-liposome complex, and diluted to one ml by adding 0.8 ml Opti-MEM I or DMEM containing 5% fetal bovine serum (FBS), 2 mMgln, 0.1 mMNEAA, and lacking antibiotics. The cells were washed once with Opti-MEM I or serum-free DMEM, and the DNA-liposome complex was added directly to the cells. After a six hr incubation at 37° C., the transfection complexes were removed and two ml of DMEM containing 10% FBS, 2 mMgln, 0.2 mMNEAA, 100 U/ml penicillin, and 100 μg/ml streptomycin, was added to each well. Note: human keratinocytes were cultured and transfected in Keratinocyte Growth Medium. Cells were incubated for an additional 48 hrs and lysed in situ by freeze-thawing once or twice in 300 μl 0.1M Tris-HC1, pH 7.8-8.0 containing 0 1% Triton X-100. Cell lysates were assayed for CAT activity.
(§7) Cell lysates were assayed for CAT activity as described by Neumann et al. (1987) BioTechniques 5:444 using [^14 C]-butyryl coenzyme A (New England Nuclear, Boston, Mass.). The enzyme reactions were incubated for 2 hrs at 37° C., overlayed with 3.0 ml Econofluor (New England Nuclear) and then incubated for an additional 2 hrs to allow diffusion of the acetylated chloramphenicol into the scintillation fluid. CAT activity was determined by measuring radioactivity in a liquid scintillation counter. […]

COS-7 cells = experiment: CAT transient transfection; format: cell-based
Procedure: as §1, §4, §5, §6, §7

normal human fibroblasts = experiment: CAT transient transfection; format: cell-based
Procedure: as §1, §4, §5, §6, §7

[3] = tested on: normal human keratinocytes; experiment: CAT transient transfection; format: cell-based; conditions: keratinocytes
Procedure: as §1, §4, §5, §6, §7

[4] = tested on: normal human keratinocytes; experiment: % protein (toxicity estimate, Bradford) after transfection; format: cell-based
Procedure: as §1
as §4, with “C. […]” for “C.”
as §3

For `CCCCCCCC/C=C\CCCCCCCCOCC(C[N+](C)(C)CCNC(=O)C(CCCNCCCN)NCCCN)OCCCCCCCC/C=C\CCCCCCCC` (stereo not drawn) [Compound 8, 1-Propanaminium, N-[2-[[2,5-bis[(3-amino]-1-oxopentyl]amino]ethyl]-n,n-dimethyl-2,3,-bis(9-octadecenyloxy)-, tetra(trifluoroacetate) salt], the “DNA transfection (in words)” value (BHK-21 cells [1]) was “highly effective”, the “toxicity (in words)” value (BHK-21 cells [2]) was “minimal toxicity” and the “CAT ACTIVITY” value (NIH-3T3 cells; 15 μg lipid, 2 μg pCMVCAT, 6 h DMEM) was 30,488 CPM/150 ul. For the same compound, the “DNA transfection (in words)” value (NIH-3T3 cells; NIH-3T3) was “highly effective”, the “CAT ACTIVITY” value (COS-7 cells; 12 μg lipid, 1 μg pSV2CAT, 6 h DMEM) was 14,282 CPM/150 ul and the “DNA transfection (in words)” value (COS-7 cells; Cos-7) was “highly effective”. The “DNA transfection (in words)” value (normal human fibroblasts) was “successfully transfected”, the “DNA transfection (in words)” value [3] was “highly effective” and the “toxicity (in words)” value [4] was “minimal toxicity”.
